Measurements as given in publication PMC5034696 (Drug Metabolism and Disposition, 2016).

What was measured:
[1] = in vivo, humans; ref Turpeinen et al., 2005; cited from earlier work
human liver microsomes [2] = assay type: in vitro ADME; conditions: HLM, p < 0.05; for S,S-OH-bupropion formation higher than control: 1 μM S-bupropion
CYP2C19 = conditions: vs extensive metabolizers; ref Zhu et al., 2014; cited from earlier work
human liver microsomes [3] = assay type: in vitro ADME; conditions: HLM

Clc1ccccc1CN1CCc2sccc2C1 [ticlopidine]
increase in bupropion AUC [1]: 61%

COC(=O)[C@H](c1ccccc1Cl)N1CCc2sccc2C1 [clopidogrel]
increase in bupropion AUC [1]: 36%

CC(C)(O)c1ccccc1CC[C@@H](SCC1(CC(=O)O)CC1)c1cccc(/C=C/c2ccc3ccc(Cl)cc3n2)c1 [montelukast]
S,S-OH-bupropion formation higher than control (human liver microsomes [2]): 15%

CC(NC(C)(C)C)C(=O)c1cccc(Cl)c1 (stereo not shown) [bupropion]
increase in bupropion AUC in CYP2C19 intermediate metabolizers (CYP2C19): 13% | estimated in vivo isomerization CL (Chiral inversion; scaled to blood volume (5 l)): 2.7 L/h | estimated in vivo isomerization CL (Chiral inversion; scaled to total body water (42 l)): 22.7 L/h

CCC1(c2ccccc2)NC(=O)N(Cc2ccccc2)C1=O (single isomer, unassigned; (+)) [N-benzylnirvanol, (+)-N-3-benzylnirvanol]
R,R-OH-bupropion formation higher than control (human liver microsomes [2]; 1 μM R-bupropion): 11% | S,S-OH-bupropion formation higher than control (human liver microsomes [2]): 20% | inhibition of 4′-OH-bupropion formation from R-bupropion (human liver microsomes [3]; 1 µM R-bupropion): 84% | inhibition of 4′-OH-bupropion formation from S-bupropion (human liver microsomes [3]; 1 µM S-bupropion): 82%
